Patent US6737547B1, “Compositions containing and methods of using N-acyl-1H-aminoindenes” (Teva Pharmaceutical Industries, Ltd., priority 1998, dated 2004)

Tests used:
Male ICR mice = assay: Protection against maximal electroshock-induced seizure in mice (MES); format: in vivo; conditions: for protected/total: electroshock 30 min after medication; for ED50: Mus musculus, median effective dose, maximal electroshock, mice, ip, read-out: ED50 (95% confidence limits)
Protocol: Male ICR mice were used. The rodent shocker apparatus consisted of a shock stimulator Type 221 (Hugo Sachs Elektronik, Germany) with a current setting for mice. Thirty minutes after medication with a given agent, given intraperitoneally as a fine slurry in methyl cellulose 0.5% in distilled water, each mouse received an electroshock of 50 mA for 0.2 seconds, applied to the eye, at a maximum of 250 V/300 mA. The ratio of mice protected against seizure in a group of four per dose was determined and used as an indicator of neuroprotective activity.
Protection of mice against seizures induced by electroshock is a widely used model to probe for potential anti-epileptic agents (see, for example, Y. I. Sohn et al., Anticonvulsant properties of diphenylthiohydantoin, Arch. Int. Pharmacodyn. 188, 284-289, 1970).

[1] = test system: guinea-pig ileal preparation; assay: Potentiation of adenosine depression of contractile response, procedure I (in the presence of test compound); conditions: drug present
Protocol: (§1) The test system used is the intramural electrically-stimulated guinea-pig ileal preparation as described in EXAMPLE 10. Adenosine added to the organ bath in rising concentrations in the range 0.1-10 uM causes a dose-dependent decrease in contraction amplitude, with an EC50 of about 1 uM.
In procedure I, the effect of a given concentration of adenosine, usually, 0.2 or 0.4 uM was first determined and related to the full contractile response in the absence of adenosine. […] The amplitude of the contractile response was recorded. Now, adenosine was added at the same dose initially used, and the effect of adenosine in the presence of the test compound was recorded.
(§2) The calculated effect is the product of the responses to each of the two agents when applied separately. The potentiation ratio is defined as (100%found)/(100-% calculated).

mice = assay: Protection against hypobaric hypoxia in mice (survival time); format: in vivo
Protocol: The apparatus used consisted of two chambers A and B connected by a three-way valve. […] The air in chamber A was evacuated to a pressure of 100 mm Hg. The three way valve was turned to disconnect chamber B from room air and to connect it to chamber A. At this point, the pressure in B fell to 200 mm Hg. Survival of residing mice was determined up to a maximum exposure of 15 minutes, and is defined as the time between onset of hypoxia to cessation of respiration.

[2] = test system: guinea-pig ileal preparation; assay: Decrease of contractile response to intramural electric stimulation in the guinea-pig ileal preparation; conditions: Cavia porcellus; calculated from logit plot; contractile response to intramural electric stimulation; read-out: EC50
Protocol: A 2 cm-long section of the distal ileum freshly dissected from a CO2-asphyxiated guinea pig is cleaned from adhering tissue and mounted in an organ bath (5 mL) containing Krebs solution constantly aerated with oxygen containing 5% CO2. The initial tension is adjusted at 5 g per strip. Tension is monitored isometrically with a Grass FTC3 force transducer. Intramural electric stimulation is delivered through a platinum electrode from a Grass stimulator model s88, s44 at supramaximal voltage (V) and a frequency of 0.1/s. The preparation develops a rhythmic contractile response at maximal amplitude which is stable over time. Addition of test drugs to the organ bath causes a dose-dependent decrease in contraction amplitude which is stable over 5-8 minutes. The relative decrease in contractile response indicates the relative potency of a given agent in a series.
Blocking or decreasing neural excitability evoked by programmed electric stimulation is another indicator of a compound's potential neuroprotective activity. A convenient test system uses the guinea-pig ileal preparation mounted in an organ bath (see, for example, Eiichi Hayashi et al., European J. Pharmacol 48, 297-307, 1978).

[3] = test system: guinea-pig ileal preparation; assay: Potentiation of adenosine depression of contractile response, procedure II (after exposure to and washout of test compound); conditions: for Mean potentiation ratio ± SEM: drug conc. (uM): 3, 100-400, 2a, 1000, 2, 1000
Protocol: as §1, §2
In all cases, the difference between the calculated and observed response was statistically significant. […] In procedure II, the dose response to adenosine was determined before and after exposure of the preparation to the test drug and washout of the test drug from the organ bath. In this case, significant potentiation of adenosine was observed even though the test drug had been washed out from the organ bath. In fact, the potentiation ratio, as defined earlier, was even higher than found in the presence of the test compounds (Procedure I), reaching very high values.

[4] = test system: guinea-pig ileal preparation; assay: Decrease in contractile response of guinea-pig ileum evoked by the nicotinic agonist DMPP; conditions: for EC50: Cavia porcellus, calculated from logit plot, inhibiting contractile response to 1 uM DMPP, read-out: EC50
Protocol: A strip of guinea-pig ileum is mounted in an organ bath, as described in EXAMPLE 10. 1-N,N-dimethyl-4-N-phenylpiperazinium chloride (DMPP) is added at intervals of about 15 minutes in order of increasing dose, to cause bath concentrations in the range of 0.1-10 uM. A brief contraction follows each addition. The amplitude of the contractile response is used to derive a dose-response relationship for DMPP. Usually, a bath concentration of 1 uM DMPP will give 90-100% of the maximal response obtainable in the given preparation. One of two procedures follows this: A dose-response of a test compound is determined in the presence of a fixed concentration of DMPP. This is done by incubating the preparation with a given concentration of the test compound, then challenging it with DMPP at a dose to give 1 uM bath concentration. The procedure is repeated with the next higher concentration of the test compound. In the other procedure, the dose-response of DMPP is determined in the presence of a fixed bath concentration of the test compound, usually 200 uM.
When intramural nerve stimulation occurs, as in the case of electrical stimulation, the contractile effector substance is released from nerve endings by a depolarization wave that propagates along the parasympathetic nerve fiber until its junction with smooth muscle of the ileum. An alternative but not equivalent procedure is stimulation of parasympathetic ganglia by an appropriate nicotinic agonist such as 1-N,N-dimethyl-4-N-phenylpiperazinium chloride (DMPP). Stimulation of parasympathetic ganglia causes a depolarization wave in the post-ganglionic nerve fiber which terminates on the smooth muscle of the ileum, causing release of contractile effector and contraction (see, for example, E. S. Vizi, Acetylcholine release from guinea-pig ileum by parasympathetic ganglion stimulants and gastrin-like polypeptides, Br. J. Pharmacol. 47, 765-77. 1973).

[5] = adenosine 0.2 uM, drug conc. range 40-400 uM
[6] = Mus musculus, ip, mice, 200 mm Hg, read-out: survival ± SD (survival time as percent of vehicle control)
[7] = adenosine 0.4 uM, after exposure and washout, 5, 50-400, 6, 50-400
[8] = adenosine 0.4 uM, drug conc. range (uM): 3, 20-400, 5, 50-200, 6, 25-50
[9] = adenosine 0.4 uM, after exposure and washout, drug conc. range (uM): 3, 100-400, 5, 50-400, 6, 50-400

Row | Structure (SMILES) | protected/total (Male ICR mice; 50 mg/kg intraperitoneally) | protected/total (Male ICR mice; 100 mg/kg intraperitoneally) | ED50 (Male ICR mice) [mg/kg] | response vs control in vivo at 25 mg/kg (mice; [6]) [%] | response vs control in vivo at 50 mg/kg (mice; [6]) [%] | response vs control in vivo at 100 mg/kg (mice; [6]) [%] | EC50 [2] [µM] | Mean potentiation ratio ± SEM [3, 7] | EC50 [4] [µM] | also measured
1 | CC(=O)N[C@@H]1CCc2ccccc21 [Compound 2a, (R)-N-acetyl-1-aminoindan, reference compound] | 3/4 | 4/4 | 42 | 142 ± 94 | 299 ± 69 | 375 ± 72 | 748 | 1.41 | 279 | protected/total (Male ICR mice; 25 mg/kg intraperitoneally): 0/4; Mean potentiation ratio ± SEM [1, 5]: 1.31 ± 0.05; potentiation ratio, Max [1, 5]: 1.43; potentiation ratio, Min [1, 5]: 1.19; response vs control in vivo at 36 mg/kg (mice; Mus musculus, 36 mg/kg, ip, mice, 200 mm Hg, read-out: survival ± SD (survival time as percent of vehicle control)): 110 ± 57%; rate of restoration of the original response to adenosine after washout ([3]; after exposure to and washout of the potentiating agent): fastest; reversibility of the depression by rising concentrations of DMPP ([4]; test compound at 200 uM fixed bath concentration, FIG. 8): almost to full restoration
2 | O=CNC1=CCc2ccccc21 [Compound 5, N-Formyl-3-amino-1H-indene] | 0/4 | 4/4 | 79.4 | 586 ± 253 | 331 ± 272 | 489 ± 286 | 188 | 5.55 ± 1.0 | 34 | protected/total (Male ICR mice; 75 mg/kg intraperitoneally): 1/4; Mean potentiation ratio ± SEM [1, 8]: 2.19 ± 0.36; potentiation ratio, Max [1, 8]: 2.60; potentiation ratio, Min [1, 8]: 1.47; response vs control in vivo at 12.5 mg/kg (mice; Mus musculus, 12.5 mg/kg, ip, mice, 200 mm Hg, read-out: survival ± SD (survival time as percent of vehicle control)): 248 ± 154%; activity in the hypobaric hypoxia model (in words) (mice; dose of 25 mg/kg, listed in decreasing order of activity): strong activity; potentiation ratio, Max [3, 9]: 7.28; potentiation ratio, Min [3, 9]: 3.78; potentiating effect retained after wash-out from the organ bath (in words) ([3]; guinea pig ileal preparation after wash-out): prolonged potentiating effect
